Results: paper PMC12412055, “Parallel synthesis of 5′-amino-5′-deoxy-adenosine derivatives for focused chemical space exploration and their application as methyltransferase inhibitors” (RSC Medicinal Chemistry, 2025)
Values joined by “and” are separate entries in the source; they are usually repeats but may differ in a detail not shown here. Identical values can stand only once. Like-named read-outs stand apart in the source and are kept apart here.

Columns and labels:
METTL3/14 [1] = biological target: T1, METTL3/14 (Homo sapiens, UniProt Q86U44); experiment: Fluorescence polarization (FP) FTAD displacement assay, METTL3/14; type: binding; settings: for displacement of FTAD: 100 μM compound; for displacement of FTAD / KD (METTL3/14, FP-assay) / Kd: 50 nM FTAD, 1 μM enzyme; for KD (METTL3/14, FP-assay) / Kd: compound dilution series
T1 construct: human METTL3 (UniProt: Q86U44 aa 252–580); Strep tag-II (C); made in house; host or cells: E. coli BL21(DE3), pETduet-1
T1 sequence (Q86U44 252-580): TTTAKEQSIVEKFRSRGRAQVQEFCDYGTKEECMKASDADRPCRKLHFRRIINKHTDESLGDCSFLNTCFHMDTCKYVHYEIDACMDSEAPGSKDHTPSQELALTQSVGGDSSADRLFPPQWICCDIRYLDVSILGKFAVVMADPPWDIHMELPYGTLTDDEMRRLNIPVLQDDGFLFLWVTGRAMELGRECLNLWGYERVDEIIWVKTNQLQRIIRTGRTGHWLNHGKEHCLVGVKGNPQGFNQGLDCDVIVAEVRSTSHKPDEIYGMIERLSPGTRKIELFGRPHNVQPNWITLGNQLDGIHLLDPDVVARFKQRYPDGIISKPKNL
T1 sequence (Q9HCE5 108-444 partner limits assumed): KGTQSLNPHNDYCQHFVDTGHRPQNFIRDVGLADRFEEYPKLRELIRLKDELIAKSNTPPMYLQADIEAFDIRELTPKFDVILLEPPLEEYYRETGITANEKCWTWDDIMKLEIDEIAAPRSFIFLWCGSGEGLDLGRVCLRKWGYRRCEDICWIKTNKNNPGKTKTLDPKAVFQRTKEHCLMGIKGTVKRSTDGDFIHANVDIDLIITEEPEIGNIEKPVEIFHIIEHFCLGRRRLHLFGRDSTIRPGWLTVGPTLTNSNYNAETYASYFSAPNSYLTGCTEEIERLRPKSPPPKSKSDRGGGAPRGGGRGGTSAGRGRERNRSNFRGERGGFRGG

SARS-CoV-2 nsp14/10 = SARS-CoV-2 nsp14/10 (Severe acute respiratory syndrome coronavirus 2, UniProt P0DTD1); experiment: Fluorescence polarization (FP) FTAD displacement assay, nsp14/10; type: binding; settings: for Kd: 50 nM FTAD; for displacement of FTAD: 1 μM compound
nsp14/10 [2] = biological target: T2, nsp14/10 (Severe acute respiratory syndrome coronavirus 2, UniProt P0DTD1); experiment: Microscale thermophoresis (MST) FTAD displacement assay; type: binding; settings: 50 nM FTAD, 3-fold dilution series of nsp14/10
human DNMT2 = biological target: human DNMT2; set-up: method as in PMID 39145518; settings: probe affinity; read-out: KD of FTAD for DNMT2; cited from earlier work
METTL3/14 [3] = biological target: T1, METTL3/14; set-up: method as in PMID 39145518; settings: probe affinity; read-out: KD of FTAD for METTL3/14; cited from earlier work
nsp14/10 [4] = biological target: T2, nsp14/10; experiment: biochemical; type: binding; settings: for Kd: read-out: KD (ITC)
nsp14/10 [5] = biological target: T2, nsp14/10; settings: cited from earlier work
[6] = 1 μM enzyme, compound dilution series, read-out: KD (nsp14/10, determined by FP-assay)
[7] = mean ± standard deviation from duplicate measurements, 25 °C
[8] = single measurement (one of duplicates)
[9] = ligand 0.305 µM, dilution series
[10] = ligand 0.914 µM, dilution series
[11] = ligand 2.74 µM, dilution series
[12] = ligand 8.22 µM, dilution series
[13] = ligand 24.7 µM, dilution series
[14] = ligand 74.0 µM, dilution series
[15] = ligand 100 µM, triplicate wells
[16] = ligand 100 µM, triplicate wells, enzyme not printed in Table S4

Nc1ncnc2c1ncn2[C@@H]1O[C@H](C[C@@H](N)CC[C@H](N)C(=O)O)[C@@H](O)[C@H]1O [SFG, sinefungin, reference compound]
displacement of FTAD (METTL3/14 [1]): 92%

Cc1cccc(-c2cncc(C(=O)NC[C@H]3O[C@@H](n4cnc5c(N)ncnc54)[C@H](O)[C@@H]3O)c2)c1 [Compound 64, N-(((2R,3S,4R,5R)-5-(6-Amino-9H-purin-9-yl)-3,4-dihydroxytetra hydrofuran-2-yl)methyl)-5-(m-tolyl)nicotinamide]
Kd (SARS-CoV-2 nsp14/10; [6]): 2900 ± 380 nM

Nc1ncnc2c1ncn2[C@@H]1O[C@H](CNC(=O)Cc2cccc(F)c2Br)[C@@H](O)[C@H]1O [Compound 63, N-(((2R,3S,4R,5R)-5-(6-Amino-9H-purin-9-yl)-3,4-dihydroxytetra hydrofuran-2-yl)methyl)-2-(2-bromo-3-fluorophenyl)acetamide]
Kd (SARS-CoV-2 nsp14/10; [6]): 17200 ± 5500 nM

Nc1ncnc2c1ncn2[C@@H]1O[C@H](CNS(=O)(=O)Cc2ccccc2)[C@@H](O)[C@H]1O [Compound 66, N-(((2R,3S,4R,5R)-5-(6-Amino-9H-purin-9-yl)-3,4-dihydroxytetra hydrofuran-2-yl)methyl)-1-phenylmethanesulfonamide]
Kd (SARS-CoV-2 nsp14/10; [6]): 42300 ± 11100 nM

Nc1ncnc2c1ncn2[C@@H]1O[C@H](CN(CC[C@H](N)C(=O)O)Cc2cn(CCNC(=O)c3ccc4c(c3)C(=O)OC43c4ccc(O)cc4Oc4cc(O)ccc43)nn2)[C@@H](O)[C@H]1O [FTAD, 5-FAM-triazolyl-adenosyl-diaminobutyric acid]
Kd (SARS-CoV-2 nsp14/10; 2-fold dilution series of nsp14/10 from 3.00 μM to 46.9 nM, read-out: KD(FTAD, nsp14/10), FP-assay): 1300 ± 300 nM
Kd (nsp14/10 [2]): 1200 ± 100 nM
Kd (human DNMT2): 6400 ± 700 nM
Kd (METTL3/14 [3]): 1100 ± 100 nM

Nc1ncnc2c1ncn2[C@@H]1O[C@H](CNS(=O)(=O)/C=C/c2ccccc2)[C@@H](O)[C@H]1O [Compound 35, (E)-N-(((2R,3S,4R,5R)-5-(6-Amino-9H-purin-9-yl)-3,4-di-hydroxytetrahydrofuran-2-yl)methyl)-2-phenylethene-1-sulfonamide]
displacement of FTAD (SARS-CoV-2 nsp14/10): 100%
ΔH (ITC) (nsp14/10 [4]; mean ± standard deviation from duplicate measurements): -32.86 kcal/mol
KD (ITC) (nsp14/10 [4]; [7]): nanomolar range
-T∆S (ITC) (nsp14/10 [4]; [8]): 24.6 kcal/mol and 22.5 kcal/mol
stoichiometry n (ITC) (nsp14/10 [4]; [8]): 0.42 and 0.45
Kd (nsp14/10 [4]; [8]): 151 nM and 169 nM

Nc1ncnc2c1ncn2[C@@H]1O[C@H](CNS(=O)(=O)c2ccc3ccccc3c2)[C@@H](O)[C@H]1O [Compound 34, N-(((2R,3S,4R,5R)-5-(6-Amino-9H-purin-9-yl)-3,4-dihydroxy-tetrahydrofuran-2-yl)methyl)naphthalene-2-sulfonamide]
KD (METTL3/14, FP-assay) (METTL3/14 [1]): low micromolar affinity
Kd (METTL3/14 [1]): 12900 ± 2000 nM
displacement of FTAD (METTL3/14 [1]): ~92%
displacement of FTAD (SARS-CoV-2 nsp14/10): 100%
KD (ITC) (nsp14/10 [4]; [7]): nanomolar range
-T∆S (ITC) (nsp14/10 [4]; [8]): 12 kcal/mol and 14.9 kcal/mol
stoichiometry n (ITC) (nsp14/10 [4]; [8]): 0.66 and 0.67
Kd (nsp14/10 [4]; [8]): 165 nM and 214 nM
binding and inhibition of nsp14/10 (nsp14/10 [5]): nanomolar range

Nc1ncnc2c1ncn2[C@@H]1O[C@H](CNS(=O)(=O)c2ccc(Br)c([N+](=O)[O-])c2)[C@@H](O)[C@H]1O [Compound 44, N-(((2R,3S,4R,5R)-5-(6-Amino-9H-purin-9-yl)-3,4-dihydroxytetrahydrofuran-2-yl)methyl)-4-bromo-3-nitrobenzenesulfon amide]
inhibition of nsp14/10 (nsp14/10 [5]): low micromolar range

Nc1ncnc2c1ncn2[C@@H]1O[C@H](CNS(=O)(=O)c2ccc(-c3ccccc3)cc2)[C@@H](O)[C@H]1O [Compound 40, N-(((2R,3S,4R,5R)-5-(6-Amino-9H-purin-9-yl)-3,4-dihydroxy-tetrahydrofuran-2-yl)methyl)-[1,1′-biphenyl]-4-sulfonamide]
KD (METTL3/14, FP-assay) (METTL3/14 [1]): low micromolar affinity
Kd (METTL3/14 [1]): 16100 ± 4600 nM
displacement of FTAD (METTL3/14 [1]): ~92%

Nc1ncnc2c1ncn2[C@@H]1O[C@H](CNS(=O)(=O)Cc2ccc3ccccc3c2)[C@@H](O)[C@H]1O [Compound 65, N-(((2R,3S,4R,5R)-5-(6-Amino-9H-purin-9-yl)-3,4-dihydroxytetra hydrofuran-2-yl)methyl)-1-(naphthalen-2-yl)methanesulfon amide]
Kd (SARS-CoV-2 nsp14/10; [6]): 3800 ± 780 nM

CN(C)c1cccc2c(S(=O)(=O)NC[C@H]3O[C@@H](n4cnc5c(N)ncnc54)[C@H](O)[C@@H]3O)cccc12 [Compound 42, N-(((2R,3S,4R,5R)-5-(6-Amino-9H-purin-9-yl)-3,4-dihydroxy-tetrahydrofuran-2-yl)methyl)-5-(dimethylamino)naphthalen-1-sulfonamide]
KD (METTL3/14, FP-assay) (METTL3/14 [1]): low micromolar affinity
Kd (METTL3/14 [1]): 22500 ± 1400 nM
displacement of FTAD (METTL3/14 [1]): ~92%
fluorescence polarization, raw data (METTL3/14 [1]; [9]): 144 mP and 142 mP and 140 mP
total intensity, raw data (METTL3/14 [1]; [9]): 16997 and 14743 and 15446
fluorescence polarization, raw data (METTL3/14 [1]; [10]): 131 mP and 134 mP and 139 mP
total intensity, raw data (METTL3/14 [1]; [10]): 16613 and 15443 and 18075
fluorescence polarization, raw data (METTL3/14 [1]; [11]): 128 mP and 126 mP
total intensity, raw data (METTL3/14 [1]; [11]): 15091 and 15438 and 15739
fluorescence polarization, raw data (METTL3/14 [1]; [12]): 116 mP and 113 mP and 115 mP
total intensity, raw data (METTL3/14 [1]; [12]): 16190 and 14718 and 16069
fluorescence polarization, raw data (METTL3/14 [1]; [13]): 90 mP and 84 mP and 93 mP
total intensity, raw data (METTL3/14 [1]; [13]): 17750 and 16617 and 17703
fluorescence polarization, raw data (METTL3/14 [1]; [14]): 40 mP and 43 mP and 54 mP
total intensity, raw data (METTL3/14 [1]; [14]): 17281 and 16313 and 18091
total intensity, raw data (METTL3/14 [1]; [15]): 18205 and 16177 and 16524
fluorescence polarization, raw data (METTL3/14 [1]; [16]): 44 mP and 42 mP and 39 mP
fluorescence polarization, raw data (METTL3/14 [1]; ligand 222 µM, dilution series): 23 mP and 28 mP and 40 mP
total intensity, raw data (METTL3/14 [1]; ligand 222 µM, dilution series): 22984 and 20625 and 20534
fluorescence polarization, raw data (METTL3/14 [1]; ligand 666 µM, dilution series): 30 mP and 36 mP and 33 mP
total intensity, raw data (METTL3/14 [1]; ligand 666 µM, dilution series): 25251 and 24796 and 26626

Cc1ccc(S(=O)(=O)NC[C@H]2O[C@@H](n3cnc4c(N)ncnc43)[C@H](O)[C@@H]2O)cc1[N+](=O)[O-] [Compound 47, N-(((2R,3S,4R,5R)-5-(6-Amino-9H-purin-9-yl)-3,4-dihydroxy-tetrahydrofuran-2-yl)methyl)-4-methyl-3-nitrobenzenesulfon amide]
inhibition of nsp14/10 (nsp14/10 [5]): low micromolar range

Nc1ncnc2c1ncn2[C@@H]1O[C@H](CNS(=O)(=O)c2ccc(Cl)c(C(F)(F)F)c2)[C@@H](O)[C@H]1O [Compound 46, N-(((2R,3S,4R,5R)-5-(6-Amino-9H-purin-9-yl)-3,4-dihydroxy-tetrahydrofuran-2-yl)methyl)-4-chloro-3-(trifluoromethyl) benzenesulfonamide]
displacement of FTAD (SARS-CoV-2 nsp14/10): 100%
KD (ITC) (nsp14/10 [4]; [7]): nanomolar range
Kd (nsp14/10 [4]; [7]): 106 ± 6 nM
-T∆S (ITC) (nsp14/10 [4]; [8]): 15.8 kcal/mol and 13.8 kcal/mol
stoichiometry n (ITC) (nsp14/10 [4]; [8]): 0.43 and 0.44
Kd (nsp14/10 [4]; [8]): 111 nM and 100 nM

Nc1ncnc2c1ncn2[C@@H]1O[C@H](CSCC[C@H](N)C(=O)O)[C@@H](O)[C@H]1O [SAH, S-adenosyl-L-homocysteine, reference compound]
total intensity, raw data (METTL3/14 [1]; [15]): 15527 and 14218 and 14357
fluorescence polarization, raw data (METTL3/14 [1]; [16]): 13 mP and 7 mP and 8 mP
